Data on 4 compounds can be found in ChEMBL document CHEMBL5715260, “Selectivity Literature for EUbOPEN Chemogenomic Library” (2024).

The target of assay [1] is T1, Hepatocyte nuclear factor 4-alpha (Homo sapiens) (UniProt P41235).
T1 sequence (whole entry): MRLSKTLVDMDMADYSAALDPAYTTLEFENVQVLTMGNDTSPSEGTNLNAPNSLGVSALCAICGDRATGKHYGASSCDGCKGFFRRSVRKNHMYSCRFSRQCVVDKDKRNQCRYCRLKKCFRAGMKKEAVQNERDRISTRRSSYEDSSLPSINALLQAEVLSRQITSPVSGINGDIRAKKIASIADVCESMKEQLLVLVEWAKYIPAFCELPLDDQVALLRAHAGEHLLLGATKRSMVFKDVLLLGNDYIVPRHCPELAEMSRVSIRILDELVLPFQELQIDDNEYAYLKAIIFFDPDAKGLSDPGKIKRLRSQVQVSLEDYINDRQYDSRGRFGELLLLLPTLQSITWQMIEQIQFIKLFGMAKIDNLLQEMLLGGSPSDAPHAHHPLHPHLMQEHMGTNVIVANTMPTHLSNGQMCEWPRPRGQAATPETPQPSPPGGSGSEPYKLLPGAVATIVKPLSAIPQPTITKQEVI
Kind of assay: Selectivity interaction (Reporter gene assay) EUB0001142a HNF4A. Further details: recommended concentration 1 uM. In general terms: Reporter assays use an easily measured gene product as a stand-in for the process of interest.

The target in assay [2] is T2, Nuclear receptor subfamily 2 group C member 1 (Homo sapiens) (UniProt P13056).
T2 sequence (whole entry): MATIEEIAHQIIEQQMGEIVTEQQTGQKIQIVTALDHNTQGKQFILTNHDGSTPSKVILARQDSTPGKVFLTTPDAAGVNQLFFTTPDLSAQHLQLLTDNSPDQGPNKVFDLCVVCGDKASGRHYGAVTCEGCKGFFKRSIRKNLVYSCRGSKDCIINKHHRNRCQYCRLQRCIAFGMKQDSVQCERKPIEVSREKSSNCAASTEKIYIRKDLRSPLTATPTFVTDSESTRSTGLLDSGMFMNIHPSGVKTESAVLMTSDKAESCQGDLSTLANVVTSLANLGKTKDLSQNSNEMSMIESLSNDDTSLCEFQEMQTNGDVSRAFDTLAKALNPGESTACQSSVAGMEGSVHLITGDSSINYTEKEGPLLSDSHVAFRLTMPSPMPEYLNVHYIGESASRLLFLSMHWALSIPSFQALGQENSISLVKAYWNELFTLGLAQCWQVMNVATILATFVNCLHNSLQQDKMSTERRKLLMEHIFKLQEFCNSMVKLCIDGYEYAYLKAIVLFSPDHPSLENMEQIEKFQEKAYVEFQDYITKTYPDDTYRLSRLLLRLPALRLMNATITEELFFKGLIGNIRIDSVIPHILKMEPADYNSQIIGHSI
Kind of assay: Selectivity interaction (Reporter gene assay) EUB0001142a NR2C1. Further details: recommended concentration 1 uM.

Assay [3] addresses Nuclear receptor subfamily 2 group E member 1 (Homo sapiens) (UniProt Q9Y466). Put plainly: Selectivity interaction (Reporter gene assay) EUB0001142a NR2E1. Further details: recommended concentration 1 uM.
For assay [4], the target named is Nuclear receptor subfamily 4immunitygroup A member 1 (Homo sapiens) (UniProt P22736). Kind of assay: Selectivity interaction (Reporter gene assay) EUB0001142a NR4A1. Further details: recommended concentration 1 uM.
Chain of Nuclear receptor subfamily 4immunitygroup A member 1 (Homo sapiens) (P22736 whole entry): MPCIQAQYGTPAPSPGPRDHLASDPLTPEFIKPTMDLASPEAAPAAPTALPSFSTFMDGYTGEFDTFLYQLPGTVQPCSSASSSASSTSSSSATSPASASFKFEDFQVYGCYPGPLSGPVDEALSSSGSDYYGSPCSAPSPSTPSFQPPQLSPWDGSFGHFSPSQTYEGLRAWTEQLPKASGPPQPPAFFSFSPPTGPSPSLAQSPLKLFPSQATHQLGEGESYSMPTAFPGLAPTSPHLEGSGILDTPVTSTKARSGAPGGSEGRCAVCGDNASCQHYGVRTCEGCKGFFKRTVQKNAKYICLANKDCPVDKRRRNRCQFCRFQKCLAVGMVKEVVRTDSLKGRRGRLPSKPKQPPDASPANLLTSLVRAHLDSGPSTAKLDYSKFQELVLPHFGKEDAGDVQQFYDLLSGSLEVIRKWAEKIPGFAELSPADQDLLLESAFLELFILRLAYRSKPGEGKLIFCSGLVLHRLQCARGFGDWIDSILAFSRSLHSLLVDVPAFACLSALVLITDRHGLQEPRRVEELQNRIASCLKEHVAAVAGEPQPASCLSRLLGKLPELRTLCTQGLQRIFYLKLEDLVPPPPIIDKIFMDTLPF
In assay [5] the target is Steroidogenic factor 1 (Homo sapiens) (UniProt Q13285). Kind of assay: Selectivity interaction (Reporter gene assay) EUB0001142a NR5A1. More on the design: recommended concentration 1 uM.
Chain of Steroidogenic factor 1 (Homo sapiens) (Q13285 whole entry): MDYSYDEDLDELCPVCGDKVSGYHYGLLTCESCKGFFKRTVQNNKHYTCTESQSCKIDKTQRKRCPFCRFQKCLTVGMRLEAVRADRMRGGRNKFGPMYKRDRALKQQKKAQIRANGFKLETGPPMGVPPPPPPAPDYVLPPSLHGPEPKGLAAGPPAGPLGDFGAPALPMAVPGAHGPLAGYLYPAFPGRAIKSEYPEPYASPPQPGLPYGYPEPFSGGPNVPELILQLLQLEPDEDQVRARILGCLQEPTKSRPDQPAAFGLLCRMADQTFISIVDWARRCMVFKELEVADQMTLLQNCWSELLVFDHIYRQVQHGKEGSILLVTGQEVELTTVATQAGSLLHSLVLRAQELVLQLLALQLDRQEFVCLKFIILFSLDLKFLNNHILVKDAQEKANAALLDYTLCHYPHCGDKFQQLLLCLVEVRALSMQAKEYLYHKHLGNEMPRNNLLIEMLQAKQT
Assay [6] addresses T3, Alpha trans-inducing protein (Human alphaherpesvirus 1) (UniProt A0A5J6DW59). Put plainly: Selectivity interaction (Reporter gene assay) EUB0001142a UL48. More on the design: recommended concentration 1 uM.
The target in assay [7] is T1, Hepatocyte nuclear factor 4-alpha (Homo sapiens). Put plainly: Selectivity interaction (Reporter gene assay) EUB0001150a HNF4A. Further details: recommended concentration 10 uM.
Assay [8] has as its target T2, Nuclear receptor subfamily 2 group C member 1 (Homo sapiens). Kind of assay: Selectivity interaction (Reporter gene assay) EUB0001150a NR2C1. Further details: recommended concentration 10 uM.
Assay [9] has as its target Nuclear receptor subfamily 2 group E member 1 (Homo sapiens) (UniProt Q9Y466). Kind of assay: Selectivity interaction (Reporter gene assay) EUB0001150a NR2E1. More on the design: recommended concentration 10 uM.
Assay [10] addresses Nuclear receptor subfamily 4immunitygroup A member 1 (Homo sapiens) (UniProt P22736). Kind of assay: Selectivity interaction (Reporter gene assay) EUB0001150a NR4A1. Further details: recommended concentration 10 uM.
Assay [11] has as its target Steroidogenic factor 1 (Homo sapiens) (UniProt Q13285). Kind of assay: Selectivity interaction (Reporter gene assay) EUB0001150a NR5A1. More on the design: recommended concentration 10 uM.
Assay [12] concerns the target T3, Alpha trans-inducing protein (Human alphaherpesvirus 1). Put plainly: Selectivity interaction (Reporter gene assay) EUB0001150a UL48. More on the design: recommended concentration 10 uM.
For assay [13], the target named is T4, Retinoic acid receptor RXR-alpha (Homo sapiens) (UniProt P19793).
T4 sequence (whole entry): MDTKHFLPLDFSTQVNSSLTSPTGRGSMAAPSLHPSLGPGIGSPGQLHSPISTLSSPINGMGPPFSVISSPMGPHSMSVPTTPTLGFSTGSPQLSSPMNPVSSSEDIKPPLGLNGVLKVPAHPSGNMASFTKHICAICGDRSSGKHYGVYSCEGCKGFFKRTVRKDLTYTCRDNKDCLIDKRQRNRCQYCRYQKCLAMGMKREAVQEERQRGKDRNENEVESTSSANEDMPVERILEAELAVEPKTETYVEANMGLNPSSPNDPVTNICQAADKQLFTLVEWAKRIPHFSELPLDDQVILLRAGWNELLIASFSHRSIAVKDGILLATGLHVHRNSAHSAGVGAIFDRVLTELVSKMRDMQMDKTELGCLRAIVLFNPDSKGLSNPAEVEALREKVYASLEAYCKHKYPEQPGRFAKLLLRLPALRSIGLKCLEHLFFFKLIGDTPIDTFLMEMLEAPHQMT
Put plainly: Selectivity interaction (Reporter gene assay) EUB0001150a RXRA. Further details: recommended concentration 10 uM. The conditions noted are these: reference bexarotene 1 uM, Selectivity number of off-targets 0.0, Selectivity number of targets 1.0, Source Knowledge inhouse.

Assay [14] deals with T1, Hepatocyte nuclear factor 4-alpha (Homo sapiens). Kind of assay: Selectivity interaction (Reporter gene assay) EUB0001148a HNF4A. Further details: recommended concentration 1 uM.
Assay [15] concerns the target T2, Nuclear receptor subfamily 2 group C member 1 (Homo sapiens). Put plainly: Selectivity interaction (Reporter gene assay) EUB0001148a NR2C1. More on the design: recommended concentration 1 uM.
In assay [16] the target is Nuclear receptor subfamily 2 group E member 1 (Homo sapiens) (UniProt Q9Y466). Kind of assay: Selectivity interaction (Reporter gene assay) EUB0001148a NR2E1. Further details: recommended concentration 1 uM.
Chain of Nuclear receptor subfamily 2 group E member 1 (Homo sapiens) (Q9Y466 whole entry): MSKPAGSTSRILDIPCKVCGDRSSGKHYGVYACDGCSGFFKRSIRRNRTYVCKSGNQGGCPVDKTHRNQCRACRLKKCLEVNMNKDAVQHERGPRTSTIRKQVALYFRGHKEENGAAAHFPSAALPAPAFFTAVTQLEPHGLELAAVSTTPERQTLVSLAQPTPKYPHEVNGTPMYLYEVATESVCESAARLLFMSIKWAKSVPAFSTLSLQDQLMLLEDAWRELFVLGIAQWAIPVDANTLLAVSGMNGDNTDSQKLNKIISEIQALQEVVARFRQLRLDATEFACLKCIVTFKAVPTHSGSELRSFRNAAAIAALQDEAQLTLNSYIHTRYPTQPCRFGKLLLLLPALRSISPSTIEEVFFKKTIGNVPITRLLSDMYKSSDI
Assay [17] deals with Nuclear receptor subfamily 4immunitygroup A member 1 (Homo sapiens) (UniProt P22736). Put plainly: Selectivity interaction (Reporter gene assay) EUB0001148a NR4A1. Further details: recommended concentration 1 uM.
Assay [18] deals with Steroidogenic factor 1 (Homo sapiens) (UniProt Q13285). Kind of assay: Selectivity interaction (Reporter gene assay) EUB0001148a NR5A1. Further details: recommended concentration 1 uM.
In assay [19] the target is T3, Alpha trans-inducing protein (Human alphaherpesvirus 1). Put plainly: Selectivity interaction (Reporter gene assay) EUB0001148a UL48. More on the design: recommended concentration 1 uM.
Assay [20] has as its target T4, Retinoic acid receptor RXR-alpha (Homo sapiens). Put plainly: Selectivity interaction (Reporter gene assay) EUB0001148a RXRA. More on the design: recommended concentration 1 uM.
Assay [21] deals with T1, Hepatocyte nuclear factor 4-alpha (Homo sapiens). Kind of assay: Selectivity interaction (Reporter gene assay) EUB0001143a HNF4A. Further details: recommended concentration 1 uM.
The target of assay [22] is T2, Nuclear receptor subfamily 2 group C member 1 (Homo sapiens). Kind of assay: Selectivity interaction (Reporter gene assay) EUB0001143a NR2C1. Further details: recommended concentration 1 uM.
Assay [23] addresses Nuclear receptor subfamily 2 group E member 1 (Homo sapiens) (UniProt Q9Y466). Put plainly: Selectivity interaction (Reporter gene assay) EUB0001143a NR2E1. Further details: recommended concentration 1 uM.
Assay [24] concerns the target Nuclear receptor subfamily 4immunitygroup A member 1 (Homo sapiens) (UniProt P22736). Kind of assay: Selectivity interaction (Reporter gene assay) EUB0001143a NR4A1. Further details: recommended concentration 1 uM.
In assay [25] the target is Steroidogenic factor 1 (Homo sapiens) (UniProt Q13285). Kind of assay: Selectivity interaction (Reporter gene assay) EUB0001143a NR5A1. More on the design: recommended concentration 1 uM.
In assay [26] the target is T3, Alpha trans-inducing protein (Human alphaherpesvirus 1). Kind of assay: Selectivity interaction (Reporter gene assay) EUB0001143a UL48. Further details: recommended concentration 1 uM.
The target in assay [27] is T4, Retinoic acid receptor RXR-alpha (Homo sapiens). Kind of assay: Selectivity interaction (Reporter gene assay) EUB0001143a RXRA. Further details: recommended concentration 1 uM. As to conditions: reference bexarotene 1 uM, Selectivity number of off-targets 0.0, Selectivity number of targets 1.0, Source Knowledge inhouse.

T3 sequence (A0A5J6DW59 as listed by the source): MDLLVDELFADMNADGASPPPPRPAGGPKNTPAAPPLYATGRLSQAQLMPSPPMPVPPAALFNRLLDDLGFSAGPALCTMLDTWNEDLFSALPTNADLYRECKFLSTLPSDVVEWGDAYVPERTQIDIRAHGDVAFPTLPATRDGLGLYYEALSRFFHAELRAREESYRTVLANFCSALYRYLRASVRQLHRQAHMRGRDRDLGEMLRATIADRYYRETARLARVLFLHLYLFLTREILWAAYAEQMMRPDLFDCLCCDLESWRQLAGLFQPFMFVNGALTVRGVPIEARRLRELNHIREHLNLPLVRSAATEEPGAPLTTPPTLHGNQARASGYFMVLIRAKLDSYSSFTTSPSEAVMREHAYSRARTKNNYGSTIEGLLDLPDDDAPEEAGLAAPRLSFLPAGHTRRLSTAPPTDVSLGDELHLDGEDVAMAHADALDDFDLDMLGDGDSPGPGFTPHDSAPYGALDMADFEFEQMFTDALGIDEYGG

For `CCCCCCCN(CCc1ccc(SC(C)(C)C(=O)O)cc1)C(=O)Nc1ccc(F)cc1F`, the Fold activation in [1] worked out at 1; in assay [2] it was 1.16; in assay [4], 1; in assay [5] it was 1. For the same compound, the Remaining activity in [3] came out at 0.821. For the same compound, the P-value in assay [6] came out at 0.0039.
As for `COC(=O)c1sccc1S(=O)(=O)Nc1ccc(Nc2ccccc2)cc1OC`, the Remaining activity was found to be 0.51 in assay [7]; 0.679 in assay [8]; 0.608 in [9]; 0.906 in assay [10]; 0.63 in assay [11]. Also, in assay [12], the P-value stood at 0.0012. In assay [13], this compound yielded a Relative activation of 0.476%.
Take `Cc1cc(SCc2sc(-c3ccc(C(F)(F)F)cc3)nc2C)ccc1OCC(=O)O`: the Fold activation turned out to be 1.1 in [14]; 1.24 in assay [15]; 1.05 in assay [16]; 1.02 in assay [17]; 1.05 in [18]. The compound further returned a P-value in [19] of 0.0001. The Relative activation in assay [20] came out at 0.766%.
With `COc1cc2c(cc1CC=C(C)C)C(=O)C[C@@H](c1ccc(O)cc1)O2`, the Remaining activity in assay [21] was 0.853; in [22] it was 0.85; in assay [23] it was 0.683; in assay [24], 0.758; in assay [25], 0.857. In assay [26], the P-value is 3.16e-05. The Relative activation in assay [27] is 0.529%.
